From publication PMC10490226, “Synthesis, Characterization, and Anticancer Activity of New N,N′-Diarylthiourea Derivative against Breast Cancer Cells” (Molecules, 2023)

Experiments:
[1] = tested on: MCF-7 cells; assay: MTT cytotoxicity test on MCF-7 cells; assay type: cell-based; settings: Homo sapiens; for IC50: MCF7, 24 h, MTT, 24 h incubation, doses 50 to 1000 µM, mean of three, read-out: IC50 concentration, 50% inhibition of MCF-7 cell viability; for viability at 50 µM / viability at 100 µM / viability at 150 µM / viability at 300 µM / viability at 600 µM / viability at 1000 µM: MCF7, 24 h, read-out: Cell Viability %; for viability at 50 µM: MCF-7, dose 50 µM; for viability at 100 µM: MCF-7, dose 100 µM; for viability at 150 µM: MCF-7, dose 150 µM; for viability at 300 µM: MCF-7, dose 300 µM; for viability at 600 µM: MCF-7, dose 600 µM; for viability at 1000 µM: MCF-7, dose 1000 µM
Experimental: (§1) The human cells that were utilized in the study included breast cancer cells, specifically the MCF-7 cell lines, along with normal lung cells, specifically the WI38 cell lines. These cell lines were taken from the American Type Culture Collection (ATCC). These cells were maintained in RPMI media with penicillin (100 U/mL), glutamine, 10% fetal bovine serum, and streptomycin ([…]) in a humidified incubator (5% CO2, 37 °C).
As indicated before, the prepared compounds (1–6) were tested for their capacity to inhibit the growth of MCF-7 cancer cells, employing the MTT experiment. In short, 1 × 10^5 of MCF-7 cells/mL were seeded into each well of a 96-well plate and cultured in the growth mixture at 37 °C overnight. The MCF-7 cells were then exposed to the test compounds at 37 °C for 24 h at doses that ranged from 50 to 1000 µM.
The cells were then observed under an inverted microscope (Leica DMI3000B, Mannheim, Germany) for toxicity markers in both the control and treated cells. Following this, the cells were subjected to MTT solution, which caused MTT to be converted into formazan (MTT’s metabolic product), the amount of which was directly proportionate to the total number of viable cells. The formazan crystal was then extracted from the cells by treating them with dimethyl sulfoxide. Microplate reader (Bio-Rad, Hercules, CA, USA) readings were taken at 570 nm, and the percentage of live MCF-7 cells was calculated using the following Formula (1) to indicate the influence of the studied compounds on the proliferation of the tested cells. Cell viability % = (Abs. of tested compound − Abs. of blank)/(Abs. of control − Abs. of blank) × 100 (1)
(§2) The half-suppressing dose (IC50) of the tested compounds was estimated via a dose-response curve following incubation for 24 h. To further determine whether the compounds were safe for use on living tissues, the MTT technique was used at concentrations ranging from 50 to 1000 µM to analyze the influence of the compounds on the viability of healthy WI38 cells. Results are presented as the mean of three independent evaluations of each value.

[2] = tested on: MCF-7 cells; assay: DNA fragmentation analysis by comet assay; assay type: cell-based, human
Experimental: Prior to subjecting the MCF-7 cells to compound 4, they were exposed to a caspase-3 inhibitor (Z-DEVD-FMK) in order to assess the potential involvement of caspase-3 activity in the DNA damage induced by compound 4. The occurrence of DNA damage was assessed in MCF-7 cells treated with compound 4 only (IC50 concentration) and MCF-7 cells that were pretreated with Z-DEVD-FMK (50 μM) for 1 h and then treated with compound 4 (IC50 concentration) for 24 h, utilizing the comet test. Fragmentation causes the broken DNA to be separated from the healthy cellular DNA, generating a comet tail that can be identified under a fluorescence microscope. Comet parameters were calculated using TriTek Comet Score™ software (TriTek Corp., Herndon, VA, USA), following a computerized image analysis system that recorded 100 photographs of randomly shaped comets for each slide. The tail moment and tail DNA, two often-employed markers, were combined for data finding. The Olive tail moment (OTM) has been honed to be the most precise method for assessing DNA damage. In accordance with the following Equation (2), its value can be determined by the tail’s DNA concentration and DNA mobility. OTM = quantity of tail moment × quantity of tail DNA/100(2)

[3] = tested on: wi38 cells; assay: MTT viability test on normal WI38 lung cells; assay type: cell-based, human
Experimental: as §1, §2

[4] = tested on: MCF-7 cells; assay: Lactate dehydrogenase (LDH) leakage test (ELISA); assay type: cell-based, human; settings: untreated control 85.35 ± 4.2 U/L, p < 0.001
Experimental: The levels of the released lactate dehydrogenase enzyme (LDH) in compound 4-treated MCF-7 cells were detected using the double-antibody sandwich ELISA technique (SunRed, Cat. N. 201-28-0094) to further estimate the cytotoxic impact of the tested compound 4 against MCF-7 cells. In brief, the compound 4-treated MCF-7 cancer cells were centrifuged, and 40 µL of the resulted supernatant was added to the tested wells. Following this, LDH-antibody (10 µL) and Streptavidin-HRP (50 µL) were transferred to each well for analysis. Subsequently, the 96-well plate was gently shaken, and incubated for 60 min at 37 °C. Following washing, chromogen solution A (50 µL) and chromogen solution B (50 µL) were transferred to each of the test wells, and the plates were left to incubate at 37 Celsius, out of the light, for 10 min. Next, each well was treated with stop solution (50 µL). Finally, the optical density, OD, for the tested plate was measured at 450 nm. Using the prepared standard curve, the concentration of the released LDH was estimated.

[5] = tested on: cleaved caspase-3 (activated caspase-3); assay: ELISA quantification of active (cleaved) caspase-3 in MCF-7 cells; assay type: cell-based, human; settings: MCF-7, IC50 dose (338.33 µM), p < 0.001, result in words
Experimental: The expression levels of the human active caspase-3 protein when cleaved at Asp175/Ser176 were measured in compound 4-treated MCF-7 cells, using an ELISA method (Invitrogen, Waltham, MA, USA, Catalog # KHO1091). In a nutshell, after incubating the tested compound 4 with MCF-7 cell cultures for 2 h, the supernatant (100 μL) was plated into a 96-well ELISA plate, and the resulting pellets were discarded. Each well was then suspended with 100 μL of a caspase-3 (active) antibody detection solution and left to incubate at room temperature for 1 h. The solution was then decanted from the wells and rinsed four times. Furthermore, HRP-Anti-Rabbit Antibody solution (100 µL) was added to each well, and the plate was incubated for 30 min at room temperature. A stabilized chromogen substrate (100 µL) was transferred to each well, and the plate was allowed to incubate for 30 min at room temperature, in darkness. At 450 nm, optical density readings were taken from the tested plate after adding 100 µL of stop solution to each well. Utilizing a standard curve, the quantity of active caspase-3 protein in the treated MCF-7 cells was calculated.

[6] = tested on: breast cancer cells; set-up: method as in doi:10.31788/RJC.2022.1536976; settings: read-out: IC50 concentration against the viability of breast cancer cells; cited from earlier work
[7] = IC50 concentration 24 h, with caspase-3 inhibitor Z-DEVD-FMK (50 μM, 1 h) pretreatment

Row | SMILES | IC50 [1] [µM] | viability at 50 µM [1] [%] | viability at 100 µM [1] [%] | viability at 150 µM [1] [%] | viability at 300 µM [1] [%] | viability at 600 µM [1] [%] | viability at 1000 µM [1] [%] | % DNA in Tail [2, 7] [%] | Olive Tail Moment (OTM) [2, 7] | Tail Length (PX) [2, 7] [PX] | Tail Moment [2, 7] | Tail Moment ([2]; IC50 concentration, without caspase-3 inhibitor pretreatment, control 0.22 ± 0.02) | Olive Tail Moment (OTM) ([2]; IC50 concentration, without caspase-3 inhibitor pretreatment, control 0.55 ± 0.02) | % DNA in Tail ([2]; IC50 concentration, without caspase-3 inhibitor pretreatment, control 3.11 ± 1.73) [%] | Tail Length (PX) ([2]; IC50 concentration, without caspase-3 inhibitor pretreatment, control 7.52 ± 1.82) | IC50 ([3]; Homo sapiens, WI-38, doses 50 to 1000 µM) [µM] | Cytotoxic effects on normal human lung cells (wi38 cells) ([3]; result in words) | LDH levels in treated MCF-7 cells [4] [U/L] | Cleaved caspase-3 (activated caspase-3) levels versus untreated cells [5] | IC50 [6] [µM]
1 | CCCCCCOc1ccc(NC(=O)Nc2ccccc2)cc1 [Compound 1, 1-(4-(hexyloxy)phenyl)-3-phenylurea] | 726.6 ± 1.29 | 98.6 ± 2.21 | 87.3 ± 1.34 | 80.6 ± 2.76 | 67.2 ± 1.13 | 57.2 ± 2.44 | 36.4 ± 1.34 | – | – | – | – | – | – | – | – | – | – | – | – | –
2 | CCCCCCCCCCCCCCCCOc1ccc(NC(=O)Nc2ccccc2)cc1 [Compound 3, 1-(4-(hexadecyloxy)phenyl)-3-phenylurea] | 619.7 ± 4.33 | 97.3 ± 2.45 | 93.6 ± 1.82 | 80.7 ± 2.44 | 64.9 ± 1.66 | 56.7 ± 2.55 | 20.9 ± 2.75 | – | – | – | – | – | – | – | – | – | – | – | – | –
3 | CCCCCCOc1ccc(NC(=S)Nc2ccc(F)cc2)cc1 [Compound 4, 1-(4-fluorophenyl)-3-(4-(hexyloxy)phenyl)thiourea] | 338.3 ± 1.52 | 100 ± 2.24 | 90.2 ± 2.78 | 48.1 ± 1.15 | 21.2 ± 1.66 | 18.3 ± 1.92 | 7.28 ± 2.56 | 14.37 ± 1.33 | 1.87 ± 0.34 | 7.13 ± 2.21 | 1.04 ± 0.04 | 1.72 ± 0.05 | 2.38 ± 0.06 | 17.26 ± 2.34 | 6.67 ± 1.94 | 1463 ± 4.78 | no cytotoxic effects | 521.77 ± 30.8 | significantly elevated | –
4 | C=CCNC(=S)NC(=O)c1ccc([N+](=O)[O-])cc1 [4-nitrobenzoyl-3-allylthiourea] | – | – | – | – | – | – | – | – | – | – | – | – | – | – | – | – | – | – | – | 225
5 | CCCCCCCCCCCCCCCCOc1ccc(NC(=S)Nc2ccc(F)cc2)cc1 [Compound 6, 1-(4-fluorophenyl)-3-(4-(hexadecyloxy)phenyl)thiourea] | 711.9 ± 2.5 | 96.4 ± 2.63 | 91.7 ± 2.47 | 84.1 ± 1.83 | 79.2 ± 2.64 | 46.9 ± 2.34 | 36.7 ± 1.66 | – | – | – | – | – | – | – | – | – | – | – | – | –
6 | CCCCCCCCOc1ccc(NC(=S)Nc2ccc(F)cc2)cc1 [Compound 5, 1-(4-fluorophenyl)-3-(4-(octyloxy)phenyl)thiourea] | 567.8 ± 4.28 | 98.6 ± 2.53 | 96.5 ± 2.33 | 79.5 ± 1.92 | 62 ± 1.84 | 45.4 ± 2.74 | 18 ± 1.45 | – | – | – | – | – | – | – | – | – | – | – | – | –
7 | CCCCCCCCOc1ccc(NC(=O)Nc2ccccc2)cc1 [Compound 2, 1-(4-(octyloxy)phenyl)-3-phenylurea] | 527.2 ± 1.28 | 98.8 ± 2.26 | 88.6 ± 2.22 | 72.2 ± 2.13 | 49.9 ± 1.77 | 38.3 ± 1.97 | 23.3 ± 2.33 | – | – | – | – | – | – | – | – | – | – | – | – | –
